Marks after values point to notes of the source that are not given here.
Columns and labels:
Assay type in all cases: in vivo, Solanum tuberosum
[1] = tested on: Russet Burbank seed-tubers; experiment: Example 3: etiolated sprout development and tuber quality after 28 days; conditions: 0.96 mmol/kg, 12 hours at 23° C.; 28 days at 15° C.
Experimental: (§1) Methods: Eleven-month-old Russet Burbank seed-tubers were taken from a 4° C. storage area and treated with 250 μL of trans-2-hexenal in a 9.2 liter (L) glass desiccator (0.96 mmol/kg potato tubers) for 12 hours at 23° C. The trans-2-hexenal was pipetted onto Whatman #1 filter paper in a glass petri dish (5.5 cm diameter) inside the desiccator. Control tubers were enclosed in a desiccator without trans-2-hexenal. Following treatment, the tubers were enclosed in 1 L […] chambers (3 tubers per chamber) that were placed at 15° C. A continuous airflow (approximately 80 mL/min; 21% O2, 79% N2) was established around the tubers through inlet and outlet ports in the lid of each chamber. Respiration rates were determined at four hour intervals over a 28 day storage period by quantifying CO2 in the outflow from each chamber with a LI-COR model 6262 infra-red gas analyzer (LI-COR Inc., Lincoln Nebr.). The experiment was set up in a randomized complete block design (5 replicates) with two treatments (control and trans-2-hexenal-treated). The effect of trans-2-hexenal exposure on the development of etiolated sprouts was assessed 28 days after removal from the 4° C. storage.

[2] = tested on: Russet Burbank seed tubers; experiment: Example 4: sprout inhibition by aldehyde vapors, 26 days of sprouting; conditions: for Average Sprout Length / External Pit Rating (1-4 scale) / Sprout Fresh Weight: 12 hours vapor, 26 days at 18° C.
Experimental: Methods: Eleven-month-old Russet Burbank seed tubers were taken from a 4° C. storage area and exposed to trans-2-hexenal (0.6-4.3 mmol/kg), trans-2-heptenal (0.6-3.8 mmol/kg) and trans-2-octenal (0.5-2.5 mmol/kg) vapors separately in 3.9 L glass containers for 12 hours at 23° C. The aldehydes were applied to filter paper inside petri dishes within each jar. Control tubers were enclosed in a glass container without any aldehyde. Sprouts were ‘peeping’ (approximately 3 mm in length) at the time of treatment. Following treatment, tubers were placed at 18° C. (95% relative humidity) in the dark to sprout for 26 days. The experiment was set up in a randomized complete block design (5 replicates) with chemicals and concentrations arranged factorially. Effects of the aliphatic aldehydes on the development of etiolated sprouts were documented at 20 days (photographically) and 26 days of sprouting.

Umatilla seed-tubers = experiment: Example 2: etiolated sprout development and tuber quality, Umatilla; conditions: 4.7 mmol/kg potato tubers, 25 days
Experimental: (§2) Methods: Ten-month-old Ranger Russet, Umatilla and Russet Burbank seed-tubers were taken from 4° C. storage and treated with trans-2-hexenal in 9.2-L glass desiccators as described in Example 1. The tubers were exposed to trans-2-hexenal for 0, 12 and 24 hours at 23° C. at a concentration of 4.7 mmol/kg potato tubers. Regardless of exposure time, all tubers remained enclosed in the chambers for the entire 24 hour period. This was accomplished by introducing the trans-2-hexenal at zero-time (into the 24 hour treatment desiccator) and after 12 hour incubation (into the 12 hour treatment desiccator) through a septum in the top of the closed desiccator. The treated tubers were planted into moistened peat/perlite/soil potting mix and placed in the dark at 24° C. to stimulate sprouting. The experiment was set up in a randomized complete block design (5 replicates) with treatments (3 cultivars×3 exposure times) arranged factorially. Effects of trans-2-hexenal exposure and cultivar on etiolated sprout development and tuber quality were assessed 25 days after removal from the 4° C. storage.

[3] = tested on: Desiree potatoes (tubers); experiment: Example 1: plant emergence and plant growth from treated tubers planted in greenhouse; conditions: 200 μL then 1000 μL in 9.2 L desiccator, 56 hour treatment, harvest 21 days after planting
Experimental: Methods: […] potatoes were produced in research plots at the Edmonton Research Station, University of Alberta in 1999. The tubers were harvested in September, washed, transported to Washington State University and placed in 4° C. storage in late October. Tubers, selected for uniform size, were taken from the storage area for the experiment in June. The 9-month-old tubers were fully emerged from dormancy after this prolonged storage interval; however, no sprout growth had occurred at the low storage temperature. The tubers were washed, air-dried, and evenly divided between two 9.2 liter (L) glass desiccators (8 tubers per desiccator). Trans-2-hexenal (200 μL) was pipetted into a 50 milliliter (mL) beaker that was placed inside one of the desiccators. The other desiccator served as control. Both desiccators were closed and the tubers were incubated in the two atmospheres for 32 hours. The desiccators were then opened, an additional 1000 μL of trans-2-hexenal was added to the beaker, and the desiccators were closed for an additional 24 hours. One tuber from each chamber was sampled for trans-2-hexenal content at the end of the 56 hour treatment interval. […] Time to plant emergence was recorded and plants were harvested 21 days after planting. Plants were separated into various components (e.g., stems, leaves) at harvest and the effects of trans-2-hexenal on plant morphology were assessed.

[4] = tested on: Russet Burbank seed-tubers; experiment: Example 3: potato tuber respiration (CO2 in outflow, infra-red gas analyzer); conditions: 0.96 mmol/kg
Experimental: as §1

[5] = tested on: Ranger Russet seed-tubers; experiment: Example 2: etiolated sprout development and tuber quality, Ranger Russet; conditions: 4.7 mmol/kg potato tubers, 25 days
Experimental: as §2

CCC/C=C/C=O [trans-2-hexenal]
Average Sprout Length [1]: 0** cm/tuber
Sprout fresh wt [1]: 0** g/tuber
Tuber external pit rating [1]: 2.2**
Tuber fresh wt loss [1]: 11.8** g/tuber
Average Sprout Length ([2]; 0.63 mmol/kg): 0.2 cm/tuber
External Pit Rating (1-4 scale) ([2]; 0.63 mmol/kg): 1.4
Sprout Fresh Weight ([2]; 0.63 mmol/kg): 0.04 g/tuber
Average Sprout Length ([2]; 1.33 mmol/kg): 0 cm/tuber
External Pit Rating (1-4 scale) ([2]; 1.33 mmol/kg): 2.0
Sprout Fresh Weight ([2]; 1.33 mmol/kg): 0 g/tuber
Average Sprout Length ([2]; 2.06 mmol/kg): 0 cm/tuber
External Pit Rating (1-4 scale) ([2]; 2.06 mmol/kg): 2.6
Sprout Fresh Weight ([2]; 2.06 mmol/kg): 0 g/tuber
Average Sprout Length ([2]; 2.50 mmol/kg): 0 cm/tuber
External Pit Rating (1-4 scale) ([2]; 2.50 mmol/kg): 3.5
Sprout Fresh Weight ([2]; 2.50 mmol/kg): 0 g/tuber
Average Sprout Length ([2]; 4.34 mmol/kg): 0 cm/tuber
External Pit Rating (1-4 scale) ([2]; 4.34 mmol/kg): 2.8
Sprout Fresh Weight ([2]; 4.34 mmol/kg): 0 g/tuber
external pitting (in words) ([2]; lowest concentration): minimal
Average Sprout Length (Umatilla seed-tubers; 12 h exposure): 0 cm/tuber
External Pit Rating (1-4 scale) (Umatilla seed-tubers; 12 h exposure): 3.7
Soft Rot Lesions (Umatilla seed-tubers; 12 h exposure): 2.2 no/tuber
Sprout Fresh Weight (Umatilla seed-tubers; 12 h exposure): 0 g/tuber
Average Sprout Length (Umatilla seed-tubers; 24 h exposure): 0 cm/tuber
External Pit Rating (1-4 scale) (Umatilla seed-tubers; 24 h exposure): 4.0
Soft Rot Lesions (Umatilla seed-tubers; 24 h exposure): 2.6 no/tuber
Sprout Fresh Weight (Umatilla seed-tubers; 24 h exposure): 0 g/tuber
sprouting, plant emergence and plant growth from potato tubers (in words) [3]: clearly inhibited sprouting
time after treatment at which respiration reached a level equal to the untreated tubers ([4]; 12 hours, storage at 15° C.): ≤ 32 h
respiration lower than control tubers ([4]; by the end of the study (27 day storage at 15° C.)): 2.5 fold
respiration rate greater than untreated tubers ([4]; immediately following the 12 hour treatment period): 38%
Average Sprout Length ([5]; 12 h exposure): 0 cm/tuber
External Pit Rating (1-4 scale) ([5]; 12 h exposure): 3.1
Soft Rot Lesions ([5]; 12 h exposure): 1.0 no/tuber
Sprout Fresh Weight ([5]; 12 h exposure): 0 g/tuber
Average Sprout Length ([5]; 24 h exposure): 0 cm/tuber
External Pit Rating (1-4 scale) ([5]; 24 h exposure): 3.7
Soft Rot Lesions ([5]; 24 h exposure): 1.2 no/tuber
Sprout Fresh Weight ([5]; 24 h exposure): 0 g/tuber
